In US20100130449A1, “Use of Tri-Substituted Glycerol Compounds for the Treatment of Radiation Injuries” (ALPHAPTOSE GMBH, priority 2006, published 2010):

Assays:
Assay type in all cases: in vivo
neutron irradiated mice [1] = assay: Survival of mice after neutron radiation, ET18-OCH3 given after irradiation; settings: 400-420 cGy neutron radiation, 50 mg/kg subcutaneous
Protocol: Mice were irradiated using a van de Graaf generator with of 3-8 MeV neutrons. The radiation doses used in the following analyses were 400, 410, and 420 cGy for each third of the treated and the control mice, respectively. A single dose of 50 mg/kg ET18-OCH3 was administered to half of the mice by subcutaneous injection.

gamma-radiated mice [2] = assay: Survival of mice after gamma irradiation, single dose of ET18-OCH3 before or after irradiation
neutron irradiated mice [3] = assay: White blood cell count (hemogram) after ET18-OCH3 and neutron irradiation
Protocol: FIG. 2 depicts the radioprotective effect of ET18-OCH3 (referred to as “ALP”) on the lymphocyte numbers of mice. Mice were treated with a single dose 70 mg/kg ET18-OCH3 (administered subcutaneously) 24 hours before exposure to neutron radiation (radiation dose 2.0 Gy). […]
FIG. 3 depicts the radioprotective effect of ET18-OCH3 (referred to as “ALP”) on the granulocyte numbers of mice. The experiment was performed in an analogous manner as described in FIG. 2.
The radioprotective effect of ET18-OCH3 on lymphocyte and granulocyte numbers in mice is shown in FIG. 2 and FIG. 3, respectively.

X-ray irradiated mice = assay: Survival of X-ray irradiated mice, ET18-OCH3 given after irradiation; settings: for Death/Survival treated: 2 × 25 mg/kg intravenous 6 hours and 12 hours after irradiation
Protocol: The efficacy of 1-O-octadecyl-2-O-methyl-glycero-3-phosphocholine (in the following referred to as “ET18-OCH3”) as a radioprotectant in the treatment of an acute radiation injury that is caused by (mid)lethal radiation doses was analyzed by determining its influence on the survival rate of mice and on the hematological syndrome of the radiation injury in response to different types of radiation.
A single dose of 25 mg/kg ET18-OCH3 was administered at a time intravenously to 25 mice 12 hours after exposure to an X-ray dose of 650 cGy (centiGray). Only one of the 25 treated mice died, as compared to 6 of the 25 mice in the control group.
After an intravenous administration of 25 mg/kg ET18-OCH3 6 hours and 12 hours after X-ray irradiation, respectively, the following results were obtained (Table 1). The chi-square distribution is given for all positive values. The chi-square test was used for comparing the results of the treated versus the control animals.
After an oral administration of 25 mg/kg ET18-OCH3 6 hours and 24 hours after exposure to a X-ray dose of 700 cGy X-ray irradiation, respectively, 2 of 25 treated animals died, as compared to 7 of 25 of the control animals.

neutron irradiated mice [4] = assay: Cell numbers in the peripheral blood of mice after neutron irradiation; settings: for Granulocytes, median/interquartile distance / Leukocytes, median/interquartile distance / Lymphocytes, median/interquartile distance / Thrombocytes, median/interquartile distance: 300 cGy neutron
Protocol: Mice were irradiated using a van de Graaf generator with of 3-8 MeV neutrons. […] A single dose of 50 mg/kg ET18-OCH3 was administered to half of the mice by subcutaneous injection.
As the therapy experiments were carried out with an irradiation dose range, in which the hematological syndrome of the radiation injury predominates, the evaluation of the therapeutic effect of the drug on the blood forming (hematopoetic) system is important.

neutron irradiated mice [5] = assay: Survival of mice, ET18-OCH3 given 1 day before neutron irradiation
From the text: The effect of ET18-OCH3 before applying different doses of neutron radiation on the survival rates of mice are summarized in Table 5.

gamma-radiated mice [6] = assay: Survival of mice after gamma irradiation, single dose of ET18-OCH3 before or after irradiation; remark: listed apart in the source
Protocol: FIG. 1 depicts the radioprotective effect of ET18-OCH3 on the survival rate of mice. ET18-OCH3 was administered as a single dose of 50 mg/kg body weight to each of 40 mice (20 control mice, 20 test mice). 24 hours later, the 20 test mice were exposed to a gamma radiation dose of 7.9 Gy (Gray) and 8.7 Gy, respectively. The survival rates were monitored for 30 days.

[7] = gamma 750 cGy, 30 mg/kg, a.r. (after radiation)
[8] = gamma 750 cGy, 50 mg/kg, 1 d before irradiation
[9] = gamma 775 cGy, 40 mg/kg, a.r. (after radiation)
[10] = gamma 775 cGy, 50 mg/kg, 2 h before irradiation
[11] = gamma 775 cGy, 50 mg/kg, 1 d before irradiation
[12] = gamma 800 cGy, 40 mg/kg, a.r. (after radiation)
[13] = gamma 800 cGy, 50 mg/kg, 2 h before irradiation
[14] = gamma 830 cGy, 50 mg/kg, 1 d before irradiation
[15] = gamma 870 cGy, 50 mg/kg, 1 d before irradiation
[16] = day 7, 50 mg/kg s.c. 30 min after irradiation
[17] = day 7, 50 mg/kg s.c. 2 h after irradiation
[18] = day 14, 50 mg/kg s.c. 30 min after irradiation
[19] = day 14, 50 mg/kg s.c. 2 h after irradiation
[20] = neutron 425 cGy, 50 mg/kg subcutaneously 1 day before irradiation
[21] = neutron 425 cGy, 70 mg/kg subcutaneously 1 day before irradiation
[22] = neutron 450 cGy, 50 mg/kg subcutaneously 1 day before irradiation
[23] = neutron 450 cGy, 70 mg/kg subcutaneously 1 day before irradiation
[24] = gamma 790 cGy, 50 mg/kg, 1 d before irradiation

CCCCCCCCCCCCCCCCCCOCC(COP(=O)([O-])OCC[N+](C)(C)C)OC (stereo not drawn) [ET18-OCH3, 1-O-octadecyl-2-O-methyl-glycero-3-phosphocholine]
Survival/Death (neutron irradiated mice [1]; 30 min): 18 (75%)/6 (25%)
Survival/Death (neutron irradiated mice [1]; 2 h): 13 (54%)/11 (46%)
Survival/Death (neutron irradiated mice [1]; 6 h): 12 (52%)/11 (48%)
Death (gamma-radiated mice [2]; [7]): 1 (6%)
Survival (gamma-radiated mice [2]; [7]): 17 (94%)
Death (gamma-radiated mice [2]; [8]): 0
Survival (gamma-radiated mice [2]; [8]): 20 (100%)
Death (gamma-radiated mice [2]; [9]): 12 (60%)
Survival (gamma-radiated mice [2]; [9]): 8 (40%)
Death (gamma-radiated mice [2]; [10]): 5 (25%)
Survival (gamma-radiated mice [2]; [10]): 15 (75%)
Death (gamma-radiated mice [2]; [11]): 2 (10%)
Survival (gamma-radiated mice [2]; [11]): 18 (90%)
Death (gamma-radiated mice [2]; [12]): 10 (29%)
Survival (gamma-radiated mice [2]; [12]): 25 (71%)
Death (gamma-radiated mice [2]; [13]): 3 (15%)
Survival (gamma-radiated mice [2]; [13]): 17 (85%)
Death (gamma-radiated mice [2]; [14]): 3 (15%)
Survival (gamma-radiated mice [2]; [14]): 17 (85%)
Survival (gamma-radiated mice [2]; [15]): 13 (65%)
LD50/30 gamma radiation dose (gamma-radiated mice [2]; treated irradiated mice, ET18-OCH3 one day before irradiation, probit analysis, untreated irradiated controls 7.47 Gy): 8.98 Gy
reduction of leukocyte numbers (both of lymphocytes and granulocytes) compared to untreated controls (neutron irradiated mice [3]; 50 mg/kg and 70 mg/kg, neutron irradiation, not statistically significant, 5 experiments, n=90): slightly increased
difference between the administration of 50 mg/kg and 70 mg/kg (neutron irradiated mice [3]; leukocyte numbers after neutron irradiation): No statistically significant difference
leukocyte numbers (both lymphocytes and granulocytes) (neutron irradiated mice [3]; starting at day 3 after irradiation, significant at day 7 (4 experiments; n=30, p<0.003)): increase in leukocyte numbers
number of lymphocyte relative to the normal value (neutron irradiated mice [3]; treated animals at mid-lethal irradiation doses, average): about one tenth
Death/Survival treated (X-ray irradiated mice; X-ray dose 650 cGy): 2/28
Death/Survival treated (X-ray irradiated mice; X-ray dose 700 cGy): 3/25
Death/Survival treated (X-ray irradiated mice; X-ray dose 750 cGy): 14/16
Death/Survival treated (X-ray irradiated mice; X-ray dose 800 cGy): 22/8
treated animals died (X-ray irradiated mice; oral 25 mg/kg 6 hours and 24 hours after X-ray dose of 700 cGy, control 7 of 25 died): 2 of 25
treated mice died (X-ray irradiated mice; single dose 25 mg/kg intravenously 12 hours after X-ray dose of 650 cGy, control 6 of 25 died): one of the 25
LD50/30 X-ray dose (X-ray irradiated mice; treated animals, 25 mg/kg intravenous 6 and 12 hours after irradiation, untreated controls 688.1±38.6): 749±37.1 cGy
X-ray mediated lethality (X-ray irradiated mice; treated mice compared to control mice): delayed
Granulocytes, median/interquartile distance (neutron irradiated mice [4]; [16]): 209/202
Leukocytes, median/interquartile distance (neutron irradiated mice [4]; [16]): 975/450
Lymphocytes, median/interquartile distance (neutron irradiated mice [4]; [16]): 684/255
Thrombocytes, median/interquartile distance (neutron irradiated mice [4]; [16]): 698/427
Granulocytes, median/interquartile distance (neutron irradiated mice [4]; [17]): 240/304
Leukocytes, median/interquartile distance (neutron irradiated mice [4]; [17]): 675/413
Lymphocytes, median/interquartile distance (neutron irradiated mice [4]; [17]): 446/132
Thrombocytes, median/interquartile distance (neutron irradiated mice [4]; [17]): 900/315
concentration of leukocytes and granulocytes in the peripheral blood (neutron irradiated mice [4]; day 10-15 after irradiation, when the irradiated mice died): significantly increases
Granulocytes, median/interquartile distance (neutron irradiated mice [4]; [18]): 3063/3121
Leukocytes, median/interquartile distance (neutron irradiated mice [4]; [18]): 8675/11827
Lymphocytes, median/interquartile distance (neutron irradiated mice [4]; [18]): 7439/6942
Thrombocytes, median/interquartile distance (neutron irradiated mice [4]; [18]): 533/263
Granulocytes, median/interquartile distance (neutron irradiated mice [4]; [19]): 4189/2282
Leukocytes, median/interquartile distance (neutron irradiated mice [4]; [19]): 9975/5863
Lymphocytes, median/interquartile distance (neutron irradiated mice [4]; [19]): 5101/3765
Thrombocytes, median/interquartile distance (neutron irradiated mice [4]; [19]): 987/464
Death (neutron irradiated mice [5]; [20]): 11 (73%)
Survival (neutron irradiated mice [5]; [20]): 4 (27%)
Death (neutron irradiated mice [5]; [21]): 10 (67%)
Survival (neutron irradiated mice [5]; [21]): 5 (33%)
Death (neutron irradiated mice [5]; [22]): 8 (26%)
Survival (neutron irradiated mice [5]; [22]): 22 (73%)
Death (neutron irradiated mice [5]; [23]): 12 (80%)
Survival (neutron irradiated mice [5]; [23]): 3 (20%)
Death (neutron irradiated mice [5]; neutron 475 cGy, 50 mg/kg subcutaneously 1 day before irradiation): 19 (76%)
Death (gamma-radiated mice [6]; [24]): 2 (10%)
Survival (gamma-radiated mice [6]; [24]): 18 (90%)
Death (gamma-radiated mice [6]; [15]): 7 (35%)
radioprotective effect on survival (gamma-radiated mice [6]; similar when given either 24 hours or shortly before gamma irradiation): significant radioprotective effect
